Series [1] in a line: Association (partition) with model membranes (LUVs POPE:POPC:POPS 45:35:20). It counts as physicochemical. The conditions noted are these: aqueous phase to model lipid bilayer. The protocol: The model membranes with a phospholipid composition representative of that of the native membranes (POPE:POPC:POPS 45:35 20) were prepared from stock solutions of the required lipids in chloroform or in chloroform/methanol (87/13, v/v), as described before. The solvent-free lipid residue was hydrated at 40 °C with previously heated simplified ATPase assay buffer (with all components except Ouabain and DTT). Large Unilamelar Vesicles were prepared by extrusion through two-staked polycarbonate filters (100 nm pore diameter), and the size of the LUVs was analyzed by dynamic light scattering (Zetasizer Nano ZS, Malvern, UK) being close to the filter pore size.
The membranes were diluted to the chosen concentration with simplified ATPase assay buffer and warmed to 37 °C. The NBD amphiphiles were added from stocks in DMSO (final DMSO 1% v/v) by squirting the required volume into the membrane solution under gentle vortex. Fluorescence intensity was measured after 15 to 30 min incubation at 37 °C using a Cary Eclipse spectrofluorimeter (Varian, Singapore). The path length of the sample container was selected to guarantee that scattering at the excitation wavelength was smaller than 0.1 while maintaining a good signal/noise ratio (3, 5, or 10 mm).
The increase in fluorescence of the NBD amphiphiles when associated with the model membranes was well described by a simple partition (Equation (S3)). The low affinity of the less lipophilic amphiphiles for the native membranes required the use of high membrane concentrations, and the fluorescence was measured with the plate reader SpectraMax iD5 (Molecular Devices, Berkshire, UK), where the reading setup is not very sensitive to scatter. To guarantee that the high scatter intensity was not leading to artifacts in the measured fluorescence intensity of NBD–C4, titrations of NBD-C6 and NBD–C8 were also performed in the same plate. For these two latter amphiphiles, the results obtained for the partition coefficient were similar to those obtained for experiments with low scatter intensity. A small decrease in the fluorescence intensity from NBD–C8 was nevertheless observed at very high scatter intensities (OD ≥ 0.5), which was used to correct the signal from the less lipophilic amphiphiles, see Supplementary Information (Figure S5 and Equation (S4)). The molar volume considered for the lipid was 0.8 dm^3/mol, and 1.2 g/mL was considered for the density of the membrane proteins.
S3 – Partition of the NBD amphiphiles to lipid bilayers and native membranes
The fluorescence increase that accompanies the association of the NBD amphiphiles with the
model membra nes was well defined by a simple partition, equation S3.
If 1540 nm Lb= + S3, KVL[]
where IfW and If M are respec ti vel y the fluorescence intensity when all fluorescent amphiphile is
in the aqueous phase and ass oci ated with the membranes, LbK is the partition co eff icient P
between the aqueous and the lipid bilayer, V is the molar vo l u m e of the lipid when in the lipid L
bi l ayer, and [L] is the lipid concentration. […]

Series [2] is described as follows: Partition coefficient to membrane proteins from Equations (1) and (2), all membrane proteins with equal affinity. The class given is physicochemical, High-Five insect cells. The conditions noted are these: binding to all membrane proteins with equal affinity; for KPW→P: aqueous phase to proteins; for KPLb→P: lipid bilayer to proteins. An excerpt:
From the partition coefficient obtained for the native membranes, KPW→M , and that for the model lipid bilayers, KPW→Lb , one can calculate the partition coefficient between the aqueous phase and the proteins in the membrane, KPW→P , and from the lipid bilayer to the proteins, KPLb→P , Equations (1) and (2), [40]. (1) KPW→M VM=KPW→PVP+KPW→Lb VLb (2) KPLb→P=KPW→P/KPW→Lb
In Equation (1) it is necessary to include the volume occupied by the proteins, and the values obtained will, therefore, depend on whether it is considered that the amphiphile may interact with all proteins in the membrane or with P–gp only.

Series [3] can be described thus: Critical aggregation concentration from NBD fluorescence (literature). The conditions noted are these: extrapolated from the co-solvent effect on NBD–Cn. The class given is physicochemical. An excerpt:
One important aspect which is usually overlooked in the studies of interactions with P–gp is whether the molecule of interest is in its monomeric state or aggregated. Some studies with detergents have included information regarding the formation of micelles and concluded that a complex effect on the ATPase activity (enhancement and inhibition) is observed even for concentrations below their CMC [21, 32, 91]. However, small aggregates are formed at concentrations several orders of magnitude smaller than the concentration at which micelles are detectable (their CMC). The aggregation behavior of the NBD amphiphiles used in this study was characterized by changes in the fluorescence properties of the NBD group and is, therefore, sensitive to the formation of small aggregates including dimers. The critical aggregation concentrations (CAC) at 25 °C are 1, 4, and 250 μM for NBD–C8, NBD–LysoMPE, and NBD–C4, respectively. […] An increase to at least 24 µM is thus predicted for NBD–LysoMPE.

The mark [4] stands for this setting: section: binding to all membrane proteins with equal affinity.
The mark [5] stands for this setting: section: binding to the protein P–gp only.

This is an account of results in PMC9862096, “Interaction of a Homologous Series of Amphiphiles with P-glycoprotein in a Membrane Environment—Contributions of Polar and Non-Polar Interactions” (Pharmaceutics, 2023).

Turning to `CCCCNc1ccc([N+](=O)[O-])c2nonc12` [NBD–C4], the KPW→Lb in series [1] (setting [4]) and in series [1] (setting [5]) was 3.9 × 10^2 in each case. Besides, in series [2], the KPW→P is on record as 6.9 × 10^2. In series [2], the KPLb→P is listed as 1.8.

With `CCCCCCCCCCCCCC(=O)OCC(O)COP(=O)(O)OCCNc1ccc([N+](=O)[O-])c2nonc12` (stereo not drawn) [NBD–LysoMPE], the “CAC predicted in the presence of co-solvents” value in series [3] is given as “at least 24 µM”.

As to `CCCCCCCCNc1ccc([N+](=O)[O-])c2nonc12` [NBD–C8], the KPW→Lb in series [1] (setting [4]) is given as 1.9 × 10^4. In addition, in series [1] (setting [5]), the KPW→Lb is on record as 1.9 × 10^4. Moreover, in series [2], the KPW→P is on record as 2.3 × 10^3 and the KPLb→P is reported as 0.12.
